Experimental data taken from US8975293B2, “Epigenetic co-repressors of the gamma-globin gene and methods of using same” (Regents of the University of Michigan, priority 2011, dated 2015).

Tests used:
[1] = tested on: primary human erythroid cells; assay: Proliferation and viability of differentiating erythroid cells, trypan blue count; format: cell-based; settings: day 4 through day 14
Procedure: (§1) Cryopreserved vials of purified human CD34+ cells, which were isolated from peripheral blood of healthy donors after mobilization with granulocyte colony-stimulating factor, were purchased from the Fred Hutchinson Cancer Research Center. The cells were grown and differentiated ex vivo into the erythroid lineage in 14 days by a two-phase culture method reported previously (Cui et al., 2011, Mol. Cell. Biol., 31:3298-3311; Giarratana et al., 2005, Nat. Biotechnol., 23:69-74). […] Cell morphology was examined by staining cytospins with a Wright-Giemsa stain (Sigma-Aldrich). Hemoglobin synthesis was examined by acid benzidine staining as previously described (Orkin et al., 1975, PNAS USA, 72:98-102).
(§2) A pLKO.1-puro lentiviral vector to express the LSD1 shRNA and a puromycin resistance gene was purchased from Sigma-Aldrich (TRCN0000046070), and the control empty vector was generated by removing a region (between EcoRI and NdeI sites) containing the hairpin sequence. Lentiviral particles were generated by transfecting the vectors into a packaging cell line. Cells were exposed to the viruses on day 4 of the culture for 24 hours, and then to 1 μg/ml puromycin on day 6 through day 14 for selection of infected cells.

[2] = tested on: primary human erythroid cells; assay: Hemoglobin analysis by HPLC, HbF synthesis; format: cell-based; settings: day 14, average, untreated control 4.6%
Procedure: as §1
Cells were lysed and analyzed for hemoglobin composition by the B10-Rad Variant II Hemoglobin Testing System equipped with an ion-exchange HPLC column (Hercules). Averages of three to five biological replicates are presented.
as §2

[3] = tested on: primary human erythroid cells; settings: 0.5, 1.5 or 5 μM
Procedure: as §1
For cell surface marker analysis, cells were stained with phycoerythrin (PE)-Cy7-conjugated anti-CD34 (eBioscience), PE-conjugated anti-CD71 (eBioscience), and PE-Cy5-conjugated antiglycophorin A (BD Biosciences) antibodies. For cytoplasmic HbF analysis, cells were fixed in 0.05% glutaraldehyde for 10 min, permeabilized in 0.1% Triton X-100 for 5 min, and then stained with allophycocyanin-conjugated anti-HbF antibody (Invitrogen). Stained cells were analyzed with the FACSCanto II (BD Biosciences).

[4] = tested on: fetal gamma-globin mRNA; format: cell-based, human; settings: TC treatment, by day 14
Procedure: as §1
Expression of the genes for human gamma- and beta-globins, LSD1, mouse alpha-globin, and 18S rRNA was determined by RT-qPCR assay as described previously (Cui et al., supra). The abundance of each transcript was calculated based on the threshold cycle value and the amplification efficiency, experimentally determined for each primer pair, and then normalized to the abundance of 18S rRNA transcript as an internal control. All the primer pairs except for 18S rRNA were designed to span introns. […]

[5] = tested on: H3K4 demethylase activity of LSD1; settings: differentiating erythroid cells, normalized to untreated cells
Procedure: as §1

[6] = tested on: gamma-globin promoter; settings: day 11
Procedure: as §1

[7] = tested on: Human beta-globin gene; settings: 3 or 10 mg/kg per day s.c., 5 days a week for 4 weeks
Procedure: (§3) Expression of the genes for human gamma- and beta-globins, LSD1, mouse alpha-globin, and 18S rRNA was determined by RT-qPCR assay as described previously (Cui et al., supra). The abundance of each transcript was calculated based on the threshold cycle value and the amplification efficiency, experimentally determined for each primer pair, and then normalized to the abundance of 18S rRNA transcript as an internal control. All the primer pairs except for 18S rRNA were designed to span introns.
(§4) Control mice were injected with saline only. After 4 weeks of injections, bone marrow cells were harvested for RTqPCR analysis for expression of the genes for human gamma- and beta-globins, and mouse alpha-globin as an internal control. Three or four mice were used for each experimental condition.

[8] = tested on: human gamma-globin gene; settings: 3 or 10 mg/kg per day s.c., 5 days a week for 4 weeks; dose dependent
Procedure: as §3, §4

[9] = 3 or 10 mg/kg per day s.c., 5 days a week for 4 weeks
Procedure: as §4

Compound: N[C@@H]1C[C@H]1c1ccccc1 (racemic) [TC, Tranylcypromine]
- cell proliferation ([1]; 0.5 μM): did not affect
- cell viability ([1]; 0.5 μM): did not affect
- cell proliferation ([1]; 1.5 μM): did not affect
- cell viability ([1]; 1.5 μM): did not affect
- cell proliferation ([1]; 5 μM): reduced cell proliferation
- cell viability ([1]; 5 μM): without affecting viability
- HbF, % of total hemoglobin (HPLC) ([2]; 0.5 μM): 13%
- HbF, % of total hemoglobin (HPLC) ([2]; 1.5 μM): 20%
- HbF, % of total hemoglobin (HPLC) ([2]; 5 μM): 31%
- cell population positive for both CD71 and GPA [3]: slight to moderate reduction
- HbF inductive effect by flow cytometry ([3]; day 14): both pancellular and dose-dependent
- induction of fetal gamma-globin mRNA [4]: up to 9.4 fold
- global H3K4 dimethylation [5]: enhanced global H3K4 dimethylation in a dose dependent manner
- H3K4 dimethylation at the gamma-globin promoter [6]: enhanced H3K4 dimethylation
- human beta-globin gene expression in bone marrow cells [7]: not significantly affected
- induction of human gamma-globin gene expression in bone marrow cells vs control mice [8]: about 3 fold
- activity of the mice (anecdotal observation) [9]: much more active
- signs of toxic effects on hematological or other systems [9]: did not exhibit any signs of toxic effects
- tolerability [9]: well tolerated
